Results published in EP0973746B1, “SUBSTITUTED 3-CYANO QUINOLINES” (Wyeth Holdings Corporation, priority 1997, dated 1998).
Where “and” joins values, the source holds several entries; their conditions need not be identical. Equal entries are not always repeated.

What follows are compounds tested against recombinant human MEK 1 (MAPKK) and recombinant human ERK2 (MAPK) (assay: Mitogen Activated Protein Kinase (MAPK) assay, two component coupled MEK 1 / ERK2). Details: separate entries for the same compound = evaluated more than one time.
Assay type: biochemical
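Also: MEK 1-activated ERK2 phosphorylates MBP or Myc peptide with 33P-ATP, filter capture and scintillation counting, inhibitor preincubated with ERK2 30 min at 0 °C, inhibition relative to uninhibited control.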

SMILES | IC50
CCCOc1cc2ncc(C#N)c(Nc3cccc(Br)c3)c2cc1OCCC [Example 303, 4-(3-Bromophenylamino)-6.7-di-n-propoxy-3-quinolinecarbonitrile] | > 100 µM
COc1cc2ncc(C#N)c(Nc3cccc(CCl)c3)c2cc1OC [Example 268, 4-[3-(Chloromethyl)phenylamino]-6,7-dimethoxy-3-quinolinecarbonitrile] | 15 µM
COc1cc2ncc(C#N)c(Nc3cccc(Br)c3)c2cc1OCCCN1CCOCC1 [Example 126] | > 100 µM
COc1cc2ncc(C#N)c(Nc3cc(C)c(O)c(C)c3)c2cc1OC [Example 288, 4-(4-Hydroxy-3,5-dimethyl-phenylamino)-6,7-dimethoxy-quinoline-3-carbinitile] | 16 µM
CN(C)c1cccc(Nc2c(C#N)cnc3ccc([N+](=O)[O-])cc23)c1 [Example 386, 4-(3-Dimethylaminophenylamino)-6-nitroquinoline-3-carbonitrile] | > 100 µM
COc1cc2ncc(C#N)c(Nc3cc(O)c(Cl)cc3F)c2cc1OCCCN1CCOCC1 [Example 323, 4-(4-Chloro-2-fluoro-5-hydroxy-phenylamino)-7-methoxy-6-(3-morpholin-4-yl)-propoxyl-quinoline-3-carbonitrile] | 15 µM
COc1cc(N)cc2c(Nc3ccc(C)c(O)c3)c(C#N)cnc12 [Example 344, 6-Amino-4-(3-hydroxy-4-methyl-phenylamino)-8-methoxy-quinoline-3-carbonitrile] | > 100 µM
COc1cc2ncc(C#N)c(Nc3cccc(O)c3)c2cc1OC [Example 339, 4-(3-Hydroxy-phenylamino)-6,7-dimethoxy-quinoline-3-carbonitrile] | 65 µM and 50 µM
N#Cc1cnc2ccc(N)cc2c1Nc1cccc(F)c1 [Example 385, 6-Amino-4-(3-fluorophenylamino)quinoline-3-carbonitrile] | 90 µM
COc1cc2ncc(C#N)c(Nc3cccnc3)c2cc1OC [Example 293, 6,7-Dimethoxy-4-(pyridin-3-ylamino)-quinoline-3-carbonitrile] | > 100 µM
CC(C)c1cccc(Nc2c(C#N)cnc3ccc([N+](=O)[O-])cc23)c1 [Example 357, 4-[(3-Isopropylphenyl)amino]-6-nitro-3-quinolinecarbonitrile] | > 100 µM
COc1cc2ncc(C#N)c(Nc3ccc(C)cc3)c2cc1OC [Example 340, 4-(4-methyl-phenylamino)-6,7-dimethoxy-quinoline-3-carbonitrile] | > 100 µM
Cc1cccc(Nc2c(C#N)cnc3ccc([N+](=O)[O-])cc23)c1 [Example 134] | > 100 µM and 80 µM
CN(C)c1ccc(Nc2c(C#N)cnc3ccc([N+](=O)[O-])cc23)cc1 [Example 387, 4-(4-Dimethylaminophenylamino)-6-nitroquinoline-3-carbonitrile] | > 100 µM
N#Cc1cnc2ccc(N)cc2c1Nc1ccc(Br)c(Br)c1 [Example 379, 6-Amino-4-(3,4-dibromophenylamino)quinoline-3-carbonitrile] | 40 µM
COc1cc2ncc(C#N)c(Nc3ccc(O)cc3O)c2cc1OC [Example 300, 4-(2,4-Dihydroxy-phenylamino)-6,7-dimethoxy-quinoline-3-carbonitrile] | 20 µM
COCc1cc2ncc(C#N)c(Nc3cccc(Br)c3)c2cc1COC [Example 325, 4-(3-Bromophenylamino)-6,7-di-methoxymethyl-3-quinolinecarbonitrile] | > 100 µM
COc1cc([N+](=O)[O-])cc2c(Nc3ccc(C)c(O)c3)c(C#N)cnc12 [Example 341, 4-(3-Hydroxy-4-methyl-phenylamino)-8-methoxy-6-nitro-quinoline-3-carbonitrile] | > 100 µM
CC#CC(=O)Nc1cccc(Nc2c(C#N)cnc3cc(OC)c(OC)cc23)c1 [Example 266, 4-[3-(2-Butynoylamino)phenylamino]1-6,7-dimethoxy-3-quinolinecarbonitrile] | > 100 µM
COc1cc2ncc(C#N)c(Nc3cccc(CO)c3C)c2cc1OC [Example 333, 4-(3-Hydroxymethyl-2-methylphenylamino)-6,7-dimethoxyquinoline-3-carbonitrile] | 10 µM
N#Cc1cnc2ccc([N+](=O)[O-])cc2c1Nc1ccc(F)c(Cl)c1 [Example 150, 4-[(3-chloro-4-fluorophenyl)amino]-6-nitro-3-quinolinecarbonitrile] | > 100 µM
N#Cc1cnc2ccc(N)cc2c1Nc1cccc(Cl)c1 [Example 136, 6-Amino-4-[(3-chlorophenyl)amino]-3-quinolinecarbonitrile] | 70 µM and > 100 µM
C=CC(=O)Nc1ccc2ncc(C#N)c(Nc3cccc(C(C)C)c3)c2c1 [Example 355, N-{3-Cyano-4-[(3-isopropylphenyl)amino]-6-quinolinyl}-2-propenamide] | 45 µM
N#Cc1cnc2ccc([N+](=O)[O-])cc2c1Nc1ccc(Br)cc1 [Example 153, 4-[(4-Bromophenyl)amino]-6-nitro-3-quinolinecarbonitrile] | > 100 µM
N#Cc1cnc2ccc([N+](=O)[O-])cc2c1Nc1cccc(OC(F)(F)F)c1 [Example 365, 4-[(3-Trifluoromethoxyphenyl)amino]-6-nitro-3-quinolinecarbonitrile] | > 100 µM

SMILES | IC50
COc1cc2ncc(C#N)c(Nc3ccc(SC)cc3)c2cc1OC [Example 298, 6.7-Dimethoxy-4-(4-methylsulfanyl-phenylamino)-quinoline-3-carbonitrile] | < 1 µM
COc1ccc(Nc2c(C#N)cnc3c(OC)cc([N+](=O)[O-])cc23)cc1O [Example 343, 4-(3-hydroxy-4-methoxy-phenylamino)-8-methoxy-6-nitro-quinoline-3-carbonitrile] | 60 µM
CCC(=O)Nc1ccc2ncc(C#N)c(Nc3cccc(Br)c3)c2c1 [Example 381, N-[4-(3-Bromophenylamino)-3-cyanoquinolin-6-yl]propionamide] | > 100 µM
N#Cc1cnc2ccc([N+](=O)[O-])cc2c1Nc1cccc(I)c1 [Example 131, 4-[(3-Iodophenyl)amino]-6-nitro-3-quinolinecarbonitrile] | > 100 µM
COCCOc1ccc2ncc(C#N)c(Nc3cccc(N(C)C)c3)c2c1OCCOC [Example 117] | 40 µM and 28 µM
COc1cc2ncc(C#N)c(Nc3cccc(N=[N+]=[N-])c3)c2cc1OC [Example 359, 4-(3-Azido-phenylamino)-6,7-dimethoxy-quinoline-3-carbonitrile] | > 100 µM
COc1cc([N+](=O)[O-])cc2c(Nc3ccc(Cl)cc3F)c(C#N)cnc12 [Example 342, 4-(4-chloro-2-fluoro-phenylamino)-8-methoxy-6-nitro-quinoline-3-carbonitrile] | > 100 µM
C=CC(=O)Nc1ccc2ncc(C#N)c(Nc3cccc(C)c3)c2c1 [Example 349, N-{3-Cyano-4-[(3-methylphenyl)amino]-6-quinolinyl]-2-propenamide] | > 100 µM
C=CC(=O)Nc1ccc2ncc(C#N)c(Nc3ccc(Sc4ccccc4)c(Cl)c3)c2c1 [Example 351, N-{4-[(3-Chloro-4-thiophenoxyphenyl)amino]-3-cyano-6-quinoliny}-2-propenamide] | 32 µM
COc1cc2ncc(C#N)c(Nc3cccc(N(C)C)c3)c2cc1OC [Example 366, 4-(3-Dimethylamino-phenylamino)-6,7-dimethoxy-quinoline-3-carbonitrile] | 4 µM
COc1cc2ncc(C#N)c(Nc3ccc(F)c(Cl)c3)c2cc1OCCCN1CCOCC1 [Example 125] | > 100 µM
CC#CC(=O)Nc1ccc2ncc(C#N)c(Nc3cccc(C(C)C)c3)c2c1 [Example 354, N-{3-Cyano-4-[(3-isopropylphenyl)amino]-6-quinolinyl}-2-butynamide] | > 100 µM
N#Cc1cnc2ccc([N+](=O)[O-])cc2c1Nc1ccc(Cl)c(Cl)c1 [Example 362, 4-[(3.4-dichlorophenyl)amino]-6-nitro-3-quinolinecarbonitrile] | > 100 µM
N#Cc1cnc2ccc([N+](=O)[O-])cc2c1Nc1ccc(Br)c(Br)c1 [Example 377, 4-(3,4-Dibromophenylamino)-6-nitroquinoline-3-carbonitrile] | > 100 µM
CC#CC(=O)Nc1ccc2ncc(C#N)c(Nc3cccc(F)c3)c2c1 [Example 390, But-2-ynoic Acid [4-(3-Fluorophenylamino)-3-cyanoquinolin-6-yl]amide] | > 100 µM
N#Cc1cnc2ccc([N+](=O)[O-])cc2c1Nc1ccc(Sc2ccccc2)c(Cl)c1 [Example 159, 4-[(3-Chloro-4-thiophenoxyphenyl)amino]-6-nitro-3-quinolinecarbonitrile] | > 100 µM
CC(C)c1cccc(Nc2c(C#N)cnc3ccc(N)cc23)c1 [Example 356, 6-Amino-4-[(3-isopropylphenyl)amino]-3-quinolinecarbonitrile] | > 100 µM
COc1cc2ncc(C#N)c(Nc3ccc(C)c(Br)c3)c2cc1OC [Example 248, 4-(3-Bromo-4-methyl-phenylamino)-6.7-dimethoxy-quinoline-3-carbonitrile] | 8 µM
CC#CC(=O)Nc1ccc2ncc(C#N)c(Nc3cccc(Cl)c3)c2c1 [Example 353, N-{4-[(3-Chlorophenyl)amino]-3-cyano-6-quinolinyl}-2-butynamide] | 40 µM
C/C=C/C(=O)Nc1ccc2ncc(C#N)c(Nc3cccc(Br)c3)c2c1 [Example 382, (E)-But-2-enoic Acid [4-(3-Bromophenylamino)-3-cyanoquinolin-6-yl]amide] | > 100 µM
CC#CC(=O)Nc1ccc2ncc(C#N)c(Nc3ccc(N(C)C)cc3)c2c1 [Example 394, But-2-ynoic Acid [3-Cyano-4-(4-dimethylaminophenylamino)quinolin-6-yl]amide] | > 100 µM
COc1cc2ncc(C#N)c(Nc3ccc(CCO)cc3)c2cc1OC [Example 299, 4-[4-(2-Hydroxy-ethyl)-phenylamino]-6,7-dimethoxy-quinoline-3-carbonitrile] | > 100 µM
CC#CC(=O)Nc1ccc2ncc(C#N)c(Nc3cccc(I)c3)c2c1 [Example 348, N-{3-Cyano-4-[(3-iodophenyl)amino]-6-quinolinyl}-2-butynamide] | > 100 µM and 80 µM
CCCCOc1cc2ncc(C#N)c(Nc3cccc(Br)c3)c2cc1OCCCC [Example 305, 4-(3-Bromophenylamino)-6,7-di-n-butoxy-3-quinolinecarbonitrile] | > 100 µM
